{"source": "paper PMC5845165", "about": "“Pharmacokinetic Study of 7 Compounds Following Oral Administration of Fructus Aurantii to Depressive Rats” (Frontiers in Pharmacology, 2018)", "system": "rats undergoing the forced swimming test (FST)", "experiment": "Forced swimming test (FST), immobility time after acute oral treatment", "type": "in vivo, Sprague–Dawley rats", "conditions": "Fluoxetine 20 mg/kg, single oral dose 0.5 h before test (Figure 1A); p < 0.05 vs vehicle", "protocol": "ZQ lyophilized powder or fluoxetine (Eli Lilly, United States) was dissolved with saline. To evaluate dose-dependent effects, ZQ (5, 10, 20 g/kg) or fluoxetine (20 mg/kg) was orally administered as a single dosage 0.5 h before the test. To study the precise relationship between antidepressant effects and pharmacokinetics, ZQ (20 g/kg) was orally administered as a single dose 0.5, 1, 2, or 4 h before the test. Similarly, vehicle rats were orally administered an equal volume of saline using the identical procedure.\nThe swimming tests were conducted according to a previously described method ([Flores-Burgess et al., 2017]) with minor modifications. In brief, all experiments were operated between 12:00 h and 15:00 h in the light cycle. Each rat was individually put into a vertical glass cylinder with a diameter of 20 cm, water depth of 30 cm and water temperature of 25°C. A 15-min forced swimming test was conducted 24 h before the 5-min test. Each rat was deemed to be immobile when it stopped scrabbling, remained floating stilly in the water and only made necessary struggling to maintain its head over water. The total duration of immobility was recorded during the 5-min test.", "data": [{"smiles": "CNCCC(Oc1ccc(C(F)(F)F)cc1)c1ccccc1", "note": "(stereo not shown) [Fluoxetine, fluoxetine]", "values": [{"measurement": "immobility time in the FST", "result": "116.07 ± 28.65", "unit": "s"}]}]}
